Measurements from patent publication US20230173018A1, “CASPOFUNGIN DERIVATIVES AND ASSAYS FOR EVALUATING ANTIFUNGAL TREATMENT EFFICACY” (priority 2020, published 2023).
≈ marks a conversion by molar mass, not a printed value. Like-named read-outs stand apart in the source and are kept apart here.

Legend:
Assay type in all cases: cell-based
[1] = system: panel of 49 C. albicans and C. glabrata strains; assay: Antifungal activity (MIC) compared to caspofungin over the panel; conditions: for antifungal activity spectrum: resistant vs responsive strains of the panel; for antifungal activity based on MIC values: panel of 49 strains; for MIC values higher than the parent caspofungin: ratio to caspofungin MIC, FIG. 2, Table 2
Excerpt: The antifungal activities of compounds 1a, 1 and 2 (collectively: caspofungin derivatives) were compared to that of caspofungin and CSF-BOD using a panel of 49 C. albicans and C. glabrata strains (Tables 1 and 2). The panel included ATCC strains and clinical isolates as well a collection of caspofungin-responsive strains and their corresponding isogenic caspofungin-resistant derivatives, constructed by introducing point mutations within and near the defined hotspots in the FKS1 and/or FKS2 genes of the GS complex. […] MIC values were determined using the broth double-dilution method. The clinical breakpoints (threshold) for caspofungin-resistance in C. albicans and C. glabrata are 1 μg/mL and 0.5 μg/mL, respectively. […]

[2] = system: C. glabrata TGL00107; assay: microbe, parasite or virus in culture
Excerpt: (§1) The antifungal activities of compounds 1a, 1 and 2 (collectively: caspofungin derivatives) were compared to that of caspofungin and CSF-BOD using a panel of 49 C. albicans and C. glabrata strains (Tables 1 and 2). The panel included ATCC strains and clinical isolates as well a collection of caspofungin-responsive strains and their corresponding isogenic caspofungin-resistant derivatives, constructed by introducing point mutations within and near the defined hotspots in the FKS1 and/or FKS2 genes of the GS complex. Minimal inhibitory concentration (MIC) values for all strains were determined using the broth double dilution method and are summarized in FIG. 2 and Table 2. The clinical breakpoints (threshold) for caspofungin-resistance in C. albicans and C. glabrata are 1 μg/mL and 0.5 μg/mL, respectively.

[3] = system: C. glabrata TGL00275; assay: microbe, parasite or virus in culture
Excerpt: as §1

[4] = system: C. albicans CAF2-1; assay: microbe, parasite or virus in culture
Excerpt: as §1

[5] = system: C. albicans SN95; assay: microbe, parasite or virus in culture
Excerpt: as §1

[6] = system: C. albicans T-2076 (DP-194); assay: microbe, parasite or virus in culture
Excerpt: as §1

[7] = system: C. glabrata TGL00264; assay: microbe, parasite or virus in culture
Excerpt: as §1

[8] = system: C. glabrata TGL00253; assay: microbe, parasite or virus in culture
Excerpt: as §1

[9] = system: C. glabrata TGL00091; assay: microbe, parasite or virus in culture
Excerpt: as §1

[10] = system: C. glabrata CST78; assay: microbe, parasite or virus in culture
Excerpt: as §1

[11] = system: C. glabrata TGL00263; assay: microbe, parasite or virus in culture
Excerpt: as §1

[12] = system: C. glabrata TGL00256; assay: microbe, parasite or virus in culture
Excerpt: as §1

[13] = system: C. albicans T-2077 (DP-205); assay: microbe, parasite or virus in culture
Excerpt: as §1

[14] = system: C. albicans CG72; assay: microbe, parasite or virus in culture
Excerpt: as §1

[15] = system: C. albicans DPL1016 (DP-A15-10); assay: microbe, parasite or virus in culture
Excerpt: as §1

[16] = system: C. glabrata TGL00065; assay: microbe, parasite or virus in culture
Excerpt: as §1

[17] = system: C. albicans SC5314 and SN152; assay: Competition for cellular uptake with probe 1, flow cytometry; conditions: added simultaneously with probe 1; caspofungin 1 μM, 10 μM; fluconazole 10 μM
Description: To determine if caspofungin competes for cellular uptake with fluorescent probe 1, both the drug and the probe were added simultaneously to cultures of strains SC5314 and SN152. The uptake of probe 1 was measured by flow cytometry every 15 minutes for 1 hour (FIG. 6B). […] No effect on the uptake of probe 1 was detected in cells co-treated with the antifungal azole drug fluconazole, which inhibits the biosynthesis of fungal membrane sterol, ergosterol.

[18] = system: C. albicans SC5314 cells; assay: Cell viability by propidium iodide (PI) staining, PBS vs YPAD; conditions: 1 μM
Description: To determine whether the caspofungin relocalization and apparent cell damage and death is a feature of caspofungin (and not only of the fluorescent caspofungin probe 1), cell viability was followed using propidium iodide (PI), a dye normally excluded from metabolically active cells.
Cell viability was compared in the presence and absence of 1 μM unlabeled caspofungin, using cells incubated either in PBS or in YPAD. […] Thus, cells exposed to caspofungin in nutrient-rich conditions become permeable to PI, an indicator of cell death. This observation explains the non-specific distribution of probe 1 in the cytoplasm after prolonged incubation (FIG. 7A). It is also consistent with the idea that plasma membrane permeabilization and cell death are likely accompanied by the loss of structural integrity of organelles, including the vacuoles detected here.

[19] = strain no. 23, TGL00107, parental CST34, FKS mutant
[20] = strain no. 32, TGL00275, FKS mutant
[21] = strain no. 10, CAF2-1, parental SC5314
[22] = strain no. 8, SN95, parental RM1000
[23] = strain no. 13, T-2076 (DP-194), clinical isolate, FKS1 HS1-S645F, HS2-R1361R/H mutation
[24] = strain no. 29, TGL00264, parental CST78, FKS mutant
[25] = strain no. 20, TGL00253, parental CST109, FKS2 mutant
[26] = strain no. 35, TGL00091, FKS mutant
[27] = strain no. 26, C. glabrata CST78
[28] = strain no. 28, TGL00263, parental CST78, FKS mutant
[29] = strain no. 24, TGL00256, parental CST34, FKS mutant
[30] = strain no. 15, T-2077 (DP-205), clinical isolate, FKS1 HS1-S645P mutation
[31] = strain no. 7, CG72, parental CAM, pKE1:GFP-YPT72
[32] = strain no. 3, DPL1016 (DP-A15-10), parental SC5314, FKS1 mutant HS1-S645P
[33] = strain no. 27, TGL00065, FKS mutant

Row | Structure (SMILES) | antifungal activity spectrum [1] | MIC [2, 19] [µg/mL] | MIC [3, 20] [µg/mL] | MIC [4, 21] [µg/mL] | MIC [5, 22] [µg/mL] | MIC [6, 23] [µg/mL] | MIC [7, 24] [µg/mL] | MIC [8, 25] [µg/mL] | MIC [9, 26] [µg/mL] | MIC [10, 27] [µg/mL] | MIC [11, 28] [µg/mL] | MIC [12, 29] [µg/mL] | MIC [13, 30] [µg/mL] | MIC [14, 31] [µg/mL] | MIC [15, 32] [µg/mL] | MIC [16, 33] [µg/mL] | antifungal activity based on MIC values [1] | MIC values higher than the parent caspofungin [1] | other results
1 | CC[C@H](C)C[C@H](C)CCCCCCCCC(=O)N[C@H]1C[C@@H](O)[C@@H](NCCNC(=O)CCc2ccc3n2[B-](F)(F)[N+]2=C(C)C=C(C)C2=C3)NC(=O)[C@@H]2[C@@H](O)CCN2C(=O)[C@H]([C@H](O)CCN)NC(=O)[C@H]([C@H](O)[C@@H](O)c2ccc(O)cc2)NC(=O)[C@@H]2C[C@@H](O)CN2C(=O)[C@H]([C@@H](C)O)NC1=O [CSF-BOD] | identical to that of caspofungin | >64 | >64 | 2 (≈ 1.46 µM) | 2 (≈ 1.46 µM) | 32 (≈ 23.4 µM) | >64 | >64 | >64 | 2 (≈ 1.46 µM) | >64 | 8 (≈ 5.85 µM) | >64 | 1 (≈ 0.731 µM) | >64 | >64 | – | – | MIC values higher than those of caspofungin ([1]; against the responsive strains from the tested panel): 8-32 fold
2 | CC[C@H](C)C[C@H](C)CCCCCCCCC(=O)N[C@H]1C[C@@H](O)[C@@H](NCCN)NC(=O)[C@@H]2[C@@H](O)CCN2C(=O)[C@H]([C@H](O)CCN)NC(=O)[C@H]([C@H](O)[C@@H](O)c2ccc(O)cc2)NC(=O)[C@@H]2C[C@@H](O)CN2C(=O)[C@H]([C@@H](C)O)NC1=O [Caspofungin] | – | – | – | – | – | – | – | – | – | – | – | – | – | – | – | – | – | – | effect on the uptake of probe 1 [17]: reduced the uptake of probe 1 in a dose-dependent manner; cell viability, PI staining ([18]; PBS): cells excluded the PI stain; cell viability, PI staining ([18]; YPAD, after 15 min): viable; cell viability, PI staining ([18]; YPAD, after 2 h): stained brightly with PI; MIC ([2]; Nakaseomyces glabratus, TGL00107): > 64 µg/mL; MIC ([3]; Nakaseomyces glabratus, TGL00275): 8 µg/mL (≈ 7.32 µM); MIC ([4]; Candida albicans, SC5314): 0.063 µg/mL (≈ 0.0576 µM); MIC ([5]; Candida albicans, strain no. 8, SN95, parental RM1000, read-out: MIC): 0.063 µg/mL (≈ 0.0576 µM); MIC ([6]; Candida albicans): 2 µg/mL (≈ 1.83 µM); MIC ([7]; Nakaseomyces glabratus, TGL00264): 2 µg/mL (≈ 1.83 µM); MIC ([8]; Nakaseomyces glabratus, TGL00253): > 64 µg/mL; MIC ([9]; Nakaseomyces glabratus, TGL00091): > 64 µg/mL; MIC ([10]; Nakaseomyces glabratus, strain no. 26, C. glabrata CST78, read-out: MIC): 0.125 µg/mL (≈ 0.114 µM); MIC ([11]; Nakaseomyces glabratus, TGL00263): 8 µg/mL (≈ 7.32 µM); MIC ([12]; Nakaseomyces glabratus, TGL00256): 1 µg/mL (≈ 0.915 µM); MIC ([13]; Candida albicans): > 64 µg/mL; MIC ([14]; Candida albicans, strain no. 7, CG72, parental CAM, pKE1:GFP-YPT72, read-out: MIC): 0.031 µg/mL (≈ 0.0284 µM); MIC ([15]; Candida albicans, SC5314): 16 µg/mL (≈ 14.6 µM); MIC ([16]; Nakaseomyces glabratus, TGL00065): > 64 µg/mL
3 | CC[C@H](C)C[C@H](C)CCCCCCCCC(=O)N[C@H]1C[C@@H](O)[C@@H](NCCN)NC(=O)[C@@H]2[C@@H](O)CCN2C(=O)[C@H]([C@H](O)CCN)NC(=O)[C@H]([C@H](O)[C@@H](O)c2ccc(OCc3cn(CCCNC(=O)c4ccc(-c5c6ccc(=[N+](C)C)cc-6oc6cc(N(C)C)ccc56)c(C(=O)[O-])c4)nn3)cc2)NC(=O)[C@@H]2C[C@@H](O)CN2C(=O)[C@H]([C@@H](C)O)NC1=O [Compound 1] | identical to that of caspofungin | >64 | 64 (≈ 38.9 µM) | 0.5 (≈ 0.304 µM) | 0.5 (≈ 0.304 µM) | 32 (≈ 19.5 µM) | >64 | >64 | >64 | 1 (≈ 0.608 µM) | >64 | 4 (≈ 2.43 µM) | >64 | 0.5 (≈ 0.304 µM) | 64 (≈ 38.9 µM) | >64 | retained antifungal activities | 4-16 | –
4 | C#CCOc1ccc([C@H](O)[C@@H](O)[C@@H]2NC(=O)[C@@H]3C[C@@H](O)CN3C(=O)[C@H]([C@@H](C)O)NC(=O)[C@@H](NC(=O)CCCCCCCC[C@@H](C)C[C@@H](C)CC)C[C@@H](O)[C@@H](NCCN)NC(=O)[C@@H]3[C@@H](O)CCN3C(=O)[C@H]([C@H](O)CCN)NC2=O)cc1 [Compound 1a] | – | >64 | 16 (≈ 14.1 µM) | – | 0.125 (≈ 0.11 µM) | 32 (≈ 28.3 µM) | >64 | >64 | >64 | 0.5 (≈ 0.442 µM) | >64 | 2 (≈ 1.77 µM) | >64 | 0.063 (≈ 0.0557 µM) | 16 (≈ 14.1 µM) | >64 | retained antifungal activities | 1-8 | –
5 | CC[C@H](C)C[C@H](C)CCCCCCCCC(=O)N[C@H]1C[C@@H](O)[C@@H](NCCN)NC(=O)[C@@H]2[C@@H](O)CCN2C(=O)[C@H]([C@H](O)CCN)NC(=O)[C@H]([C@H](O)[C@@H](O)c2ccc(OCc3cn(CCCNc4ccc([N+](=O)[O-])c5nonc45)nn3)cc2)NC(=O)[C@@H]2C[C@@H](O)CN2C(=O)[C@H]([C@@H](C)O)NC1=O [Compound 2] | identical to that of caspofungin | >64 | >64 | 1 (≈ 0.717 µM) | 2 (≈ 1.43 µM) | >64 | >64 | >64 | >64 | 4 (≈ 2.87 µM) | >64 | 64 (≈ 45.9 µM) | >64 | 1 (≈ 0.717 µM) | >64 | >64 | retained antifungal activities | 16-16 | –
6 | CN(C)c1ccc2c(-c3ccc(C(=O)NCCCN=[N+]=[N-])cc3C(=O)[O-])c3ccc(=[N+](C)C)cc-3oc2c1 [Compound 5-TMR-azide] | – | >64 | >64 | >64 | – | >64 | >64 | >64 | >64 | – | >64 | >64 | >64 | – | >64 | >64 | – | – | MIC [5]: >64 µg/mL; MIC [10]: >64 µg/mL; MIC [14]: >64 µg/mL
